Experimental findings from ChEMBL document CHEMBL1201862, “PubChem BioAssay data set” (2004) are described below.

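Grown in 96-well plates, cells were treated for 48 hours with each compound at five concentrations. Insufficient inhibition: endpoint recorded as highest concentration tested. Abbreviation: GI50, concentration required for 50% inhibition of growth.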 Active and inactive are the calls of the source. No stated cut-off is given here; in the data, active = GI50 up to about 1.1 µM and inactive = higher.

Test systems include SK-OV-3; UO-31; SW-620; NCI-H460; COLO 205; SN12C; DU-145; UACC-62; OVCAR-3; HL-60; RXF 393; HCC 2998; UACC-257; OVCAR-4; SF-268; MDA-MB-231; M14; A498; RPMI-8226; HOP-92.
Assay in all cases: growth of human tumour cells (NCI), 48 h

As for `CC(C)(C)OC(=O)N/C(C=O)=C\C1CCCCC1`, the GI50 with SK-OV-3 was 30 µM (inactive); in the test on UO-31, 16.5 µM (inactive); in the test with SW-620, 27.3 µM (inactive); in the test on NCI-H460 it was 20.2 µM (inactive); with COLO 205, 19.2 µM (inactive); in the test with SN12C it was 19.3 µM (inactive). The GI50 in the test with DU-145 was 29 µM (inactive); with UACC-62 it was 15.6 µM (inactive); with OVCAR-3, 24.1 µM (inactive); in the test with HL-60, 25.4 µM (inactive); with RXF 393, 23.4 µM (inactive); with HCC 2998, 19.8 µM (inactive). Further, the GI50 was 20.4 µM (inactive) in the test on UACC-257; 23.1 µM (inactive) in the test on OVCAR-4; 17.4 µM (inactive) in the test with SF-268; 19.5 µM (inactive) in the test on MDA-MB-231; 16.2 µM (inactive) in the test on M14.
As to `CCCCC(/C=C\COC1CCCCO1)=C/C(=O)OCC` (configuration not stated), the GI50 in the test with SK-OV-3 is > 100 µM (inactive); with UO-31 it was > 100 µM (inactive); in the test on SW-620, 70.6 µM (inactive); in the test on NCI-H460 it was 98.6 µM (inactive); in the test on A498 it was > 100 µM (inactive); in the test with COLO 205, > 100 µM (inactive). Moreover, the GI50 with SN12C is 57.4 µM (inactive); with DU-145, > 100 µM (inactive); in the test with UACC-62, 55.7 µM (inactive); in the test with OVCAR-3 it was 52.7 µM (inactive); in the test on HL-60, 29.2 µM (inactive); in the test on RXF 393, 60.7 µM (inactive). Besides, the GI50 with HCC 2998 was > 100 µM (inactive); in the test with UACC-257, > 100 µM (inactive); in the test on OVCAR-4 it was 61.2 µM (inactive); in the test on RPMI-8226, 25.9 µM (inactive); with SF-268, > 100 µM (inactive); in the test with MDA-MB-231 it was > 100 µM (inactive). Further, the GI50 in the test on M14 is 91.6 µM (inactive).
With `O=c1[nH]nc(-c2ccccc2)c2[nH]c(-c3ccccc3)cc12`, the GI50 in the test on SK-OV-3, with UO-31, in the test with SW-620, in the test with COLO 205, with SN12C and in the test with DU-145 was > 100 µM (inactive) throughout. Further, the GI50 in the test with OVCAR-3 is > 100 µM (inactive); with HL-60 it was > 100 µM (inactive); in the test on RXF 393, > 100 µM (inactive); with OVCAR-4, > 100 µM (inactive); in the test on HOP-92, > 100 µM (inactive); in the test with RPMI-8226, 88.3 µM (inactive). The GI50 in the test with SF-268 and with M14 was > 100 µM (inactive) throughout.
In the case of `O=C(O)CCC(NC(=O)c1ccc(CNc2nc3cc(C(F)(F)F)ccc3nc2C(=O)O)cc1)C(=O)O` (configuration not stated), the GI50 in the test with SK-OV-3, in the test with UO-31, in the test on SW-620, in the test with NCI-H460, with A498 and with COLO 205 was > 100 µM (inactive) throughout. Moreover, the GI50 with DU-145, in the test with UACC-62, in the test on OVCAR-3, with HL-60, in the test with RXF 393 and in the test with HCC 2998 was > 100 µM (inactive) each time. The GI50 in the test on UACC-257, with OVCAR-4, in the test on HOP-92, in the test with SF-268 and in the test on M14 was > 100 µM (inactive) throughout.
As for `O/N=C1/Nc2cc(Cl)ccc2C(=S)N2CSCC12` (configuration not stated), the GI50 with SK-OV-3, in the test with UO-31, in the test with SW-620, in the test on NCI-H460, in the test on A498 and with COLO 205 was > 100 µM (inactive) each time. Further, the GI50 in the test with SN12C, in the test on DU-145, in the test on UACC-62, with OVCAR-3, in the test on RXF 393 and with HCC 2998 was > 100 µM (inactive) throughout. The GI50 in the test on UACC-257, with OVCAR-4, in the test with RPMI-8226, with SF-268, in the test on MDA-MB-231 and with M14 was > 100 µM (inactive) in each case.
Regarding `CN1C(=O)C2CCCC(=O)N2c2cccnc21` (configuration not stated), the GI50 with UO-31 is 74.1 µM (inactive); in the test with SW-620 it was > 100 µM (inactive); in the test on NCI-H460, > 100 µM (inactive); in the test on COLO 205 it was > 100 µM (inactive); in the test on SN12C it was > 100 µM (inactive); with DU-145 it was > 100 µM (inactive). For the same molecule, the GI50 in the test with UACC-62 is 68.9 µM (inactive); with OVCAR-3, > 100 µM (inactive); in the test on HL-60 it was > 100 µM (inactive); with HCC 2998, > 100 µM (inactive); with UACC-257, > 100 µM (inactive); with OVCAR-4 it was > 100 µM (inactive). For the same molecule, the GI50 in the test on RPMI-8226, in the test with SF-268 and with MDA-MB-231 was > 100 µM (inactive) in each case.
Turning to `C=C[C@]1(C)CC[C@]2(C)C(CC[C@@]3(C)C2C[C@H](O)[C@H](O)[C@@]3(C)O)C1` (some centres not stated), the GI50 in the test on SK-OV-3, with UO-31, in the test on SW-620, in the test on NCI-H460, in the test on A498 and in the test with COLO 205 was > 100 µM (inactive) throughout. Besides, the GI50 in the test on SN12C, in the test with DU-145, in the test with UACC-62, in the test with OVCAR-3, in the test with HL-60 and with HCC 2998 was > 100 µM (inactive) each time. The GI50 in the test on UACC-257, in the test on RPMI-8226, in the test on SF-268, with MDA-MB-231 and with M14 was > 100 µM (inactive) in each case.
With `COc1cc2c(cc1OC)-c1[nH]c3ccc(C#N)cc3c1CC(=O)N2`, the GI50 was > 100 µM (inactive) in the test on SK-OV-3; 2.11 µM (inactive) with UO-31; 1.03 µM (active) with SW-620; 5.31 µM (inactive) in the test with NCI-H460; 7.74 µM (inactive) with A498; 0.463 µM (active) in the test on COLO 205. Moreover, the GI50 is 5.04 µM (inactive) with SN12C; 3.33 µM (inactive) with DU-145; > 84.9 µM (inactive) with UACC-62; 1.42 µM (inactive) with OVCAR-3; 3.07 µM (inactive) with HL-60; > 52 µM (inactive) with UACC-257. Also, the GI50 with OVCAR-4 is > 30.1 µM (inactive); in the test with HOP-92 it was > 100 µM (inactive); in the test with SF-268, 1.72 µM (inactive); in the test on MDA-MB-231, > 100 µM (inactive); with M14, 8.09 µM (inactive).
Take `Oc1ccc2c(c1)c1c(n2CCN2CCOCC2)-c2ccccc2CC1`: the GI50 in the test with SK-OV-3 was 42.2 µM (inactive); in the test on UO-31, 23.6 µM (inactive); in the test on SW-620, 30.1 µM (inactive); with NCI-H460, 5.83 µM (inactive); in the test with A498 it was 20.2 µM (inactive); in the test with SN12C, 41.8 µM (inactive). For the same molecule, the GI50 with UACC-62 is 20.7 µM (inactive); in the test with OVCAR-3, 22 µM (inactive); with HL-60, 42.3 µM (inactive); in the test with RXF 393 it was 29.6 µM (inactive); in the test on UACC-257, 32.9 µM (inactive); with RPMI-8226, 29.8 µM (inactive). Moreover, the results for the GI50 in the test on SF-268, in the test with MDA-MB-231 and in the test on M14 were 30 µM (inactive), 29.9 µM (inactive) and 26.3 µM (inactive), respectively.
With `O=C(CCCn1ccnc1[N+](=O)[O-])NCCn1cnc([N+](=O)[O-])n1`, the GI50 in the test with SK-OV-3, with UO-31, in the test with SW-620, in the test on NCI-H460, with A498 and in the test with COLO 205 was > 100 µM (inactive) in each case. For the same molecule, the GI50 with SN12C, in the test on DU-145, in the test with UACC-62, in the test on OVCAR-3, in the test with HL-60 and with RXF 393 was > 100 µM (inactive) throughout. Besides, the GI50 in the test with UACC-257, with OVCAR-4, in the test on HOP-92, in the test with RPMI-8226, in the test with SF-268 and in the test on M14 was > 100 µM (inactive) in each case.
On to `C[C@]12CC[C@H](O)CC1CCC[C@@H]2O` (some centres not stated), for which the GI50 in the test with SK-OV-3, with UO-31, in the test on SW-620, in the test on NCI-H460, in the test with A498 and in the test with COLO 205 was > 100 µM (inactive) each time. Moreover, the GI50 in the test with SN12C, with UACC-62, in the test on OVCAR-3, in the test on HL-60, in the test with RXF 393 and in the test with HCC 2998 was > 100 µM (inactive) throughout. Also, the GI50 in the test with UACC-257, in the test with OVCAR-4, in the test with HOP-92, in the test with RPMI-8226, in the test on SF-268 and with M14 was > 100 µM (inactive) throughout.
Take `COc1ccc2c(c1)/C(=C\c1cccc(/C=C3/C(=O)Nc4ccc(OC)cc43)n1)C(=O)N2`: the GI50 with SK-OV-3 is 2.02 µM (inactive); in the test with UO-31 it was 1.67 µM (inactive); in the test with SW-620 it was 0.982 µM (active); in the test with NCI-H460 it was 1.4 µM (inactive); in the test with A498 it was 2.94 µM (inactive); with COLO 205, 0.33 µM (active). Also, the GI50 was 0.757 µM (active) with SN12C; 2.1 µM (inactive) in the test on DU-145; 0.676 µM (active) in the test with OVCAR-3; 0.506 µM (active) in the test on HL-60; 0.942 µM (active) in the test with RXF 393; 0.933 µM (active) in the test on HCC 2998. In addition, the GI50 with UACC-257 is 2.48 µM (inactive); in the test on OVCAR-4 it was 1.02 µM (active); in the test on HOP-92, 2.25 µM (inactive); in the test on SF-268, 2.42 µM (inactive); with M14, 1.32 µM (inactive).
